Reference: ChEMBL document CHEMBL3507680, “University of Dundee, Gates Library screen for HepG2 cell viability”

Test: Human HepG2 cell viability assay in 384 well format
Type: toxicity, cell-based
Design: dose 125 nL, time 70.5 hour; concentration not given beside the values
Conditions: HepG2 cells, read-out: Inhibition

Compared with `CS(=O)(=O)N1CCC(c2nnc3ccc(C(=O)N4CCCC4)cn23)C1` (centres undefined), `CS(=O)(=O)N1CCC2(CC1)CC(CC(=O)N1CCCC1)c1ccccc12` (centres undefined) is lower in cytotoxicity at 70.5 h: -5.09% for the first, -10.4% for the second.

First: Fc1cnc(N2CCOCC3(CCCN(c4nncs4)C3)C2)nc1 (centres undefined)
Second: c1cncc(N2CCOCC3(CCCN(c4nncs4)C3)C2)c1 (centres undefined)
The cytotoxicity at 70.5 h of the first is higher: -19.9% for the first, -21.7% for the second.

Going from `COCC(=O)N1CCC2(CC1)CC(CC(=O)NC1CC1)c1ccccc12` (centres undefined) to `COc1cc(CN2CCC3(CC2)[C@H](O)C[C@@H]3OCCO)ccc1F`, the cytotoxicity at 70.5 h rises from -18.5% to -8.63%.

Going from `COC[C@@H]1CC[C@H]2[C@H](CCN2S(=O)(=O)c2ccc(OC)cc2)O1` to `COCC1CC2(CCN(Cc3ccc(OC)cc3)CC2)CN1C(C)C` (centres undefined), the cytotoxicity at 70.5 h falls from -6.4% to -13.7%.

First: CCN(C)c1ncnc2c1CCN(Cc1ccoc1)CC2
Second: COCC1CN(Cc2ccsc2)Cc2nn(C)cc21 (centres undefined)
The cytotoxicity at 70.5 h of the first is lower: -20.5% for the first, 16.3% for the second.

Compared with `Cc1ccc(C(=O)N2C[C@@H](OCC3CCOCC3)[C@H]3OCCC[C@H]32)o1`, `CN(C)C(=O)[C@@H]1CCO[C@@H]2CCN(Cc3ccc4c(c3)OCO4)C[C@@H]21` is higher in cytotoxicity at 70.5 h: -27.2% for the first, -21.3% for the second.

Going from `Cn1cc(-c2nnn3c2COC(CNCc2nccs2)C3)cn1` (centres undefined) to `Cc1ccc(-c2cnnc(N3CCCC3c3nccs3)n2)o1` (centres undefined), the cytotoxicity at 70.5 h rises from -25.2% to -7.57%.

First: CN(C)c1nccc(-c2c[nH][nH]c2=O)n1
Second: CN(C)c1nccc(-c2cnc(N(C)C)[nH]c2=O)n1
The cytotoxicity at 70.5 h of the first is higher: -1.59% for the first, -5.37% for the second.

Compared with `CC(C)Nc1nc2c(s1)C(=O)CN(C)C2`, `CC(C)NC(=O)N1CCC2(C1)CN(c1ccsc1)C(=O)CN2C` (centres undefined) is lower in cytotoxicity at 70.5 h: 4.07% for the first, -9.03% for the second.

First: CNCC[C@H]1CC(C)(C)Oc2ccc(C)cc21
Second: CNCC[C@H]1CC(C)(C)Oc2ccc(OC)cc21
The cytotoxicity at 70.5 h of the first is lower: -2.65% for the first, -0.183% for the second.

Compared with `CC(=O)N1CCC(n2nccc2-c2cnc(N)nc2)CC1`, `Nc1ncc(-c2ccc(NC(=O)[C@@H]3CCCCN3)cc2)cn1` is higher in cytotoxicity at 70.5 h: -6.3% for the first, 2.01% for the second.

Going from `CC[C@H](C)Nc1nccc(-c2cnc3sccn3c2=O)n1` to `Cc1ncc(-c2ccnc(SCCN)n2)c(-c2ccco2)n1`, the cytotoxicity at 70.5 h rises from -4.72% to 21.8%.

First: CC(C)NC(=O)NCc1cc(-c2cccc(Cl)c2)nn1C
Second: C[C@H](NS(C)(=O)=O)C(=O)NCc1cc(-c2ccco2)n[nH]1
The cytotoxicity at 70.5 h of the first is higher: 7.95% for the first, -12.9% for the second.

Compared with `OC1(CNCCSc2ccccn2)CCCNC1` (centres undefined), `O=C(CN1C[C@H]2CC[C@@H]1CN(Cc1ccccn1)C2)Nc1ccccc1` is higher in cytotoxicity at 70.5 h: -6.54% for the first, -6.28% for the second.

First: CCC(C(=O)NCC1=CCN(C)CC1)c1ccccc1 (centres undefined)
Second: CN(C)C[C@H]1OC[C@@H]2CCN(S(=O)(=O)c3ccccc3)C[C@@H]21
The cytotoxicity at 70.5 h of the first is higher: 30% for the first, 22.9% for the second.

Compared with `Cc1csc(CN2C[C@H](NC(=O)C3CCOCC3)[C@@H](C(C)C)C2)n1`, `CC(C)c1nnsc1CNC(=O)C1CCN(C(C)C)CC1` is higher in cytotoxicity at 70.5 h: -10.9% for the first, 1.46% for the second.

Going from `CC(c1ccccn1)N(C)Cc1ccc(-n2ccnc2)cc1` (centres undefined) to `NC(=O)c1cnc2n1CCN(C(=O)c1ccc(Cn3cccc3)cc1)C2`, the cytotoxicity at 70.5 h rises from 1.45% to 5.38%.

First: CNc1ncc(C(=O)N[C@H]2CN(CCCSC)C[C@@H]2C2CC2)cn1
Second: N[C@@H]1CC[C@@H](Nc2nccc(CCC(F)(F)F)n2)C1
The cytotoxicity at 70.5 h of the first is higher: -5.85% for the first, -6.78% for the second.

Compared with `COc1ccccc1CCC(=O)N1CCCC(OCc2cccnc2)C1` (centres undefined), `O=C(c1ncccn1)N1C[C@H]2CCC[C@@]2(COCc2cccnc2)C1` is lower in cytotoxicity at 70.5 h: 26.8% for the first, 15.8% for the second.

First: CCc1cc(CN(C)C(=O)c2cnc3c(c2)nc(N)n3CC)on1
Second: CCn1cc(-c2n[nH]c(=O)n2-c2ccc3c(c2)OCO3)c(C)n1
The cytotoxicity at 70.5 h of the first is higher: -2.5% for the first, -4.59% for the second.

Going from `CN(C)CCN(C)C[C@@H]1CN(Cc2cccc(O)c2)C[C@@H]1CO` to `O=C1CC(NCc2ccc(Cl)s2)CN1Cc1cccc(F)c1` (centres undefined), the cytotoxicity at 70.5 h falls from -3.65% to -7.49%.

Compared with `CC(C)(CO)Nc1cc(-c2cn[nH]c2)ncn1`, `CCO[C@@H]1CO[C@@]2(CCCN(S(=O)(=O)c3cccnc3)C2)C1` is lower in cytotoxicity at 70.5 h: -2.91% for the first, -17.7% for the second.
